Calls of active or inactive are those of the source. No rule for the calls is given here.
target: Caspase-3 (Homo sapiens) + Caspase-9 (Homo sapiens) (UniProt P42574+P55211); experiment: caspase-9/caspase-3 cascade inhibitors, dose response, selectivity assay, biochemical, fluorescence, uHTS hits (AID 588574); details: LZ-caspase-9/caspase-3 coupled fluorogenic substrate
Sequence (P42574 whole entry, looked up): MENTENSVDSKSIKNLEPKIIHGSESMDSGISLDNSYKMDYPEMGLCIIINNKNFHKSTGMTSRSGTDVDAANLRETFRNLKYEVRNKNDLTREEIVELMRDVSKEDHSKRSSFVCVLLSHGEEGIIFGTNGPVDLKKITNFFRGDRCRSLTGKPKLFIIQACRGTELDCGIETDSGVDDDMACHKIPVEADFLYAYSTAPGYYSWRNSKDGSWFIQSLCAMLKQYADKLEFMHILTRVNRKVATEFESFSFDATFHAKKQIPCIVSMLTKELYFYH
Sequence (P55211 whole entry, looked up): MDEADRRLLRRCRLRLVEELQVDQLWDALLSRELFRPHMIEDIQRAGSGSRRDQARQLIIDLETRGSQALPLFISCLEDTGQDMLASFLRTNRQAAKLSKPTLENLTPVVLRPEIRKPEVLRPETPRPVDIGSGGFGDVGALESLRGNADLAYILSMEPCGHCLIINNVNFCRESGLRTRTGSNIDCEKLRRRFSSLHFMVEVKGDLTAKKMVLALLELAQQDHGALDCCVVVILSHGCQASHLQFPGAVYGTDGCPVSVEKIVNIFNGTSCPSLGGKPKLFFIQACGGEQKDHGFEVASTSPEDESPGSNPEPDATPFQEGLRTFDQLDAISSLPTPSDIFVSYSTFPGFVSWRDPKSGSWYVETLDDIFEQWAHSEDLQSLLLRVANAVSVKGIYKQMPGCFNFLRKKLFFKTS

| SMILES | IC50 |
| --- | --- |
| CCCc1[nH]nc2c1C(c1ccc(OC)c(CSC3=NCCS3)c1)C(C#N)=C(N)O2 (stereo not drawn) | 14.3 µM |
| O=c1cc(N/N=C/c2ccccc2)[nH]c(=O)[nH]1 | 19.4 µM |
| CCOC(=O)C1=C(c2ccccc2)NC(N)=NC1c1ccc(OCc2ccc(Cl)cc2)c(OC)c1 (stereo not drawn) | 15.8 µM |
| O=[N+]([O-])c1ccc(N/N=C/c2ccc(O)c(O)c2O)c(S(=O)(=O)N2CCOCC2)c1 | 20.4 µM |
| O/C=c1\ccc2cccc3nc(C(F)(F)F)nc1c23 | 11.8 µM |
| O=C1C(O)=C(O)C(=O)c2ccccc21 | 10.2 µM |
| CCN(CC)CCCNC1=C(Cl)C(=O)c2ccccc2C1=O | 16.1 µM |
| CCN(CC)CCOC(=O)c1ccc(N/C=C(/C#N)c2nc(-c3ccc(OC)c(OC)c3)cs2)cc1 | > 100 µM (inactive) |
| CC(=O)N(Cc1ccc(F)cc1)C1=C(NCCc2ccccc2)C(=O)c2ccccc2C1=O | 8.49 µM |
| CC1=NN(c2ccc(Cl)cc2)C(=O)C1C(c1ccccc1O)c1c(C)[nH]n(-c2ccc(Cl)cc2)c1=O (stereo not drawn) | 46.1 µM |
| O=C1C(Cl)=C(NCCN2CCOCC2)C(=O)c2ccccc21 | 23.3 µM |
| O=C(N/N=C/c1cc(Cl)cc([N+](=O)[O-])c1O)NC12CC3CC(CC(C3)C1)C2 | 9.15 µM |
| CCCCCCc1cc2cc(-c3nnc(-c4ccccc4OC)o3)c(=O)oc2cc1O | 14.7 µM |
| COc1ccc(NC2=C(NCCO)C(=O)c3ccccc3C2=O)cc1 | 10.6 µM |
| Oc1ccc(/C=N\Nc2cc(N3CCOCC3)nc(N3CCOCC3)n2)c(O)c1 | 57.9 µM |
| CC(C)c1ccc(/C=N/Nc2cc(N3CCOCC3)nc(N3CCOCC3)n2)cc1 | > 100 µM (inactive) |
| Oc1ccc(/C=N/Nc2cc(N3CCCC3)nc(N3CCCC3)n2)cc1O | 10.7 µM |
| CCC(=O)N(C1=C(NC)C(=O)c2ccccc2C1=O)C(C)C | 24.6 µM |
| CCN(CC)CCOC(=O)c1ccc(N/C=C(/C#N)c2nc(-c3ccc4c(c3)OCO4)cs2)cc1 | > 100 µM (inactive) |
| Oc1cccc(/C=N/Nc2cc(N3CCCC3)nc(N3CCCC3)n2)c1 | 12.5 µM |
| CSc1ccc(C=NNc2ccc(S(=O)(=O)Nc3ccccc3C(=O)O)cc2[N+](=O)[O-])cc1 | 8.5 µM |
| CCN(CC)CCOC(=O)c1ccc(N/C=C(/C#N)c2nc(-c3cc4ccccc4oc3=O)cs2)cc1 | > 100 µM (inactive) |
| CCOC(=O)C1=C(c2ccccc2)NC(N)=NC1c1ccc(OCc2ccc(C(=O)OC)cc2)cc1 (stereo not drawn) | 16 µM |

Further lines, results first:

| IC50 | SMILES |
| --- | --- |
| 3.53 µM | CN(C)c1cc(N/N=C\c2ccccc2)nc(N(C)C)n1 |
| 2.51 µM | Oc1ccccc1/C=N/Nc1cc(N2CCCC2)nc(N2CCCC2)n1 |
| 4.43 µM | CC(C)CCC(C)N=Cc1c(O)n(Cc2ccccc2)c(=O)c2ccccc12 (stereo not drawn) |
| 3.91 µM | COc1ccc(/C=N/Nc2cc(N3CCCC3)nc(N3CCCC3)n2)cc1 |
| 4.31 µM | CC1(C)C=C2C(=NN(c3ccccc3)C(N)=C2C#N)CO1 |
| 2.23 µM | Cc1[nH]n(-c2ccccc2)c(=O)c1/C=N/Nc1nncc(-c2ccccc2)n1 |
| 1.16 µM | COc1ccc(/C=N/Nc2cc(N(C)C)nc(N(C)C)n2)cc1 |
| 5.44 µM | Oc1ccc(/C=N/Nc2cc(N3CCCC3)nc(N3CCCC3)n2)cc1 |
| 6.79 µM | CN(C)c1cc(N/N=C/c2ccccc2C(F)(F)F)nc(N(C)C)n1 |
| 6.31 µM | CCCCCCc1cc2cc(-c3nnc(-c4ccccc4)o3)c(=O)oc2cc1O |
| 8.43 µM | O=C1C(Cl)=C(NCc2cccnc2)C(=O)c2ccccc21 |
| 5.3 µM | O=C1C(C2=C(O)c3ccccc3C2=O)=Nc2ccccc21 |
| 6.91 µM | Cc1ccc(NC2=C(NCCO)C(=O)c3ccccc3C2=O)cc1 |
| 8.21 µM | CC1=NN(c2ccc(C(F)(F)F)cn2)C(=O)C1 |
| 6.08 µM | O=C1C(Cl)=C(NCCN2CCCCC2)C(=O)c2ccccc21 |

From PubChem BioAssay AID588574 (Sanford-Burnham Center for Chemical Genomics, 2011)
